Earlier results on five compounds are cited in US20230165856A1, “DAPAGLIFLOZIN AND AMBRISENTAN FOR THE PREVENTION AND TREATMENT OF COVID-19” (AstraZeneca AB, priority 2020, published 2023).

Where two headings read alike, the source gives them in different places.

The conditions of data set [1]: HF patients with and without type 2 diabetes mellitus.
For data set [2] the following is noted: experimental pig model of acute lung injury.
Data set [3] deals with T1, endothelin A (ETA) receptor (Homo sapiens, UniProt P25101).
T1 sequence (P25101 21-427): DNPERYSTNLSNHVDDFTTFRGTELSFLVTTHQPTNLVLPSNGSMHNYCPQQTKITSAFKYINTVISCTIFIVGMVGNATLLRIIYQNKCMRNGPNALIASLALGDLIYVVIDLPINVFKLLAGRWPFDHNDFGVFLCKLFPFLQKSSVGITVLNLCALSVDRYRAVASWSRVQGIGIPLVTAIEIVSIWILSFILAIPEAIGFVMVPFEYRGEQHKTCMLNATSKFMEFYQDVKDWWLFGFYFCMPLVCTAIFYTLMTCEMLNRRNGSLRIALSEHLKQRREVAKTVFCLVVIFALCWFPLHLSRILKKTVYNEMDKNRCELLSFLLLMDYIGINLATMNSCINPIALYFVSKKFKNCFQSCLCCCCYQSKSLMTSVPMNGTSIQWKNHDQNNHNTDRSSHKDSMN

The conditions of data set [4]: human, in vivo.
The conditions of data set [5]: endotoxaemic sheep.

As to `CCOc1ccc(Cc2cc([C@@H]3O[C@H](CO)[C@@H](O)[C@H](O)[C@H]3O)ccc2Cl)cc1` [dapagliflozin], in data set [1], the “cardiovascular (CV) death” value is listed as “reduced” and the “risk for hospitalization for heart failure (HF)” value was “reduce the risk”.

With `COc1cc(OC)nc(O[C@H](C(=O)O)C(OC)(c2ccccc2)c2ccccc2)n1` [LU-135252], the oxygenation result in data set [2] is on record as “improved oxygenation”. Turning to `COC(c1ccccc1)(c1ccccc1)[C@H](Oc1nc(C)cc(C)n1)C(=O)O` [Ambrisentan, (2S)-2-[(4,6-dimethylpyrimidin-2-yl)oxy]-3-methoxy-3,3-diphenylpropanoic acid], the “selectivity for the ETA versus the ETB receptor” value in data set [3] was “approximately 4000 fold”. In data set [3] (compared to bosentan), the “selectivity for the ET-A receptor compared to bosentan” value is recorded as “greater selectivity”. Take `COc1ccccc1Oc1c(NS(=O)(=O)c2ccc(C(C)(C)C)cc2)nc(-c2ncccn2)nc1OCCO` [Bosentan]: in data set [4], the RVSP entry is “rapid and sustained improvement”; the oxygenation entry was “gradual improvement”. As to `COc1ccccc1Oc1c(NS(=O)(=O)c2ccc(C(C)C)cn2)nc(-c2ccnc(-c3nnn[nH]3)c2)nc1OCCO` [Tezosentan], in data set [5], the lung injury entry is on record as “attenuated lung injury”.
